Laboratory results reported in US20250009886A1, “COMPOSITIONS FOR SMALL MOLECULE THERAPEUTIC AGENT COMPOUNDS” (Delpor, Inc., priority 2016, published 2025).
Converted amounts (≈) assume the structure as drawn.

Key:
[1] = cited from earlier work; for Solubility: of the organic acid
[2] = In vitro release of risperidone from devices loaded with various risperidone addition salts (Example 5); assay type: physicochemical; conditions: for Percent Risperidone Released at Day 15: cumulative percent of total risperidone released from device, two-fold molar excess of acid, PBS, 37° C., 15 days; for cumulative in vitro release of risperidone after 15 days (percent of total loaded drug): device in 100 mL PBS at 37° C., risperidone salt with two-fold molar excess of acid

O=C(O)C(O)c1ccccc1 (racemic) [rac-Mandelic]
Solubility [1]: 158.7 mg/mL (≈ 1040 mM)

O=C(O)CNC(=O)c1ccccc1 [Hippuric acid]
Percent Risperidone Released at Day 15 [2]: 94% | cumulative in vitro release of risperidone after 15 days (percent of total loaded drug) [2]: 94%

O=C(O)CCc1ccc(O)cc1 [Hydroxyphenylpropionic acid, 3-(4-hydroxyphenyl) propionic acid]
Percent Risperidone Released at Day 15 [2]: 92% | cumulative in vitro release of risperidone after 15 days (percent of total loaded drug) [2]: 92%

Nc1ccc(C(=O)O)cc1 [PABA, 4-aminobenzoic acid]
Percent Risperidone Released at Day 15 [2]: 45%

Cc1nc2n(c(=O)c1CCN1CCC(c3noc4cc(F)ccc34)CC1)CCCC2 [Risperidone, risperidone, reference compound]
insolubility in water ([1]; neutral free base, 20-25° C.): > 10000 volumes of water per volume of drug

O=C(O)CCCCCCCCC(=O)O [Sebacic acid, sebacic acid]
Percent Risperidone Released at Day 15 [2]: 55%

O=C(O)c1ccc(C(=O)O)cc1 [Terephthalic acid]
Percent Risperidone Released at Day 15 [2]: 2.6% | cumulative in vitro release of risperidone after 15 days (percent of total loaded drug) [2]: 2.6%

O=c1[nH]c(=O)c2[nH]c(=O)[nH]c2[nH]1 [Uric acid]
Percent Risperidone Released at Day 15 [2]: 16% | cumulative in vitro release of risperidone after 15 days (percent of total loaded drug) [2]: 16%

COc1cc(C(=O)O)ccc1O [Vinallic acid, vanillic acid]
Percent Risperidone Released at Day 15 [2]: 55%

O=C(O)/C=C/c1ccc(O)cc1 [p-Coumaric, p-coumaric acid]
Solubility [1]: 1 to 10 mg/mL
